Legend:
Format in all cases: cell-based, human
[1] = test system: CD8+ T-cells from HLA A2+ healthy donors; assay: Priming of CD8+ T-cells from HLA A2+ healthy donors with WT and APL peptides, tetramer staining; settings: HLA A2+ healthy donors (n=3), compared to priming with WT peptides
Protocol: The peptides are sequence […] to the wild-type peptide and termed altered peptide ligands. […] (FIG. 9B) To test the APLs for super-agonist properties each of the WT and APL peptides were used to prime CD8+ T-cells from HLA A2+ healthy donors. The magnitude of the response to each of the peptides was assessed by staining the T-cells with tetramers for HLA A2-[…]
To generate T-cell peptide lines, CD8 T-cells were purified from the PBMCs of HLA A2+ donors using CD8 microbeads according to the manufacturer's instructions (Miltenyi Biotech, Bergisch Gladbach, Germany). Purified CD8 cells (3×10^6) were co-incubated with autologous CD8neg cells (6-8×10^6) in 24 well plates in 2 mL of T-cell media, but with no IL-15. 25 μM of each peptide was used. The cultures had 50% of the media changed thrice weekly. Tetramer staining was performed as above, using 500,000 cells per tube. […] 50,000 T-cells and 15,000 cancer cells were used per well. Incubation was performed for 48 h, and the assay developed according to the manufacturer's instructions (Mabtech, Nacka Strand, Sweden).
(§1) CPL assay of CR24 was performed as described above. Candidate peptide agonists were designed using the CR24 CPL and an online algorithm (http://wsbc.warwick.ac.uk/wsbcToolsWebpage/user_cases.php). Priming of CD8 T-cells from healthy donors, tetramer staining, and chromium release cytotoxicity assays were performed as described above.

[2] = test system: T-cell clone CR24; assay: HLA A2 tetramer staining of CR24
[3] = test system: T-cell clone CR24; assay: Activation assay of clone CR24 with exogenous peptide (peptide titration, MIP-1β ELISA)
[4] = test system: autologous melanoma cells; assay: Chromium release cytotoxicity assay of peptide-primed T-cell lines with autologous melanoma; settings: compared to WT Melan A peptide primed T-cells
Protocol: as §1

[5] = test system: autologous cancer cells (RCC, CLL); assay: Killing assay of peptide-primed CD8 T-cells with autologous cancer cells
Excerpt: (§2) (FIG. 14A) CD8 T-cells from a renal cell carcinoma (RCC) and chronic lymphocytic leukaemia (CLL) patient were left unprimed or primed with […] peptide for 28 days.

[6] = test system: CD8 T-cells from RCC, CLL and AML patients; assay: Priming of CD8 T-cells from RCC, CLL and AML patients for 28 days, TAPI-0 assay or tetramer staining
Excerpt: as §2

Sequence	priming of Melan A, BST2 and IMP2 tetramer-positive T-cells [1]	staining of CR24 with HLA A2 tetramer containing the peptide [2]	recognition by CR24 as exogenous peptide [3]	CR24 response to individual peptide ([3]; peptide at 10^-6 M)	CR24 response to individual peptide ([3]; peptide at 10^-8 M)	lysis of autologous melanoma cells by peptide-primed T-cells [4]	priming of Melan A, BST2 and IMP2 tetramer-positive T-cells ([1]; listed as MTSAIGVLVP)	killing of CLL cells by primed T-cells ([5]; CLL patient 3, compared to IMP-2 primed CD8s)	killing of autologous cancer cells by primed CD8s ([5]; RCC and CLL patient, compared to unprimed T-cells)	proportion of IMP-2 specific T-cells (IMP-2 tetramer) ([6]; AML patient and two CLL patients, primed 28 days, compared to unprimed)	MTSAIGILPV specific T-cells after priming ([6]; RCC patient (TAPI-0 assay), CLL patient (tetramer), primed 28 days)	priming of T-cells in RCC, CLL and AML patients ([6]; renal cell carcinoma, chronic lymphocytic leukaemia and acute myeloid leukaemia patients)
ITSAIGILPV (listed as Homo sapiens) [APL 2, altered peptide ligand, candidate super-agonist designed from CR24 CPL data]	exhibiting effect across each donor	–	–	–	–	–	–	–	–	–	–	–
LLLGIGILVL (listed as Homo sapiens) [wild-type peptide from BST2 (residues 22-31)]	–	stained	recognised	responded	responses dropped	–	–	–	–	–	–	–
MTSAIGILPV (listed as Homo sapiens) [APL 5, altered peptide ligand, super-agonist peptide for multi-pronged T-cells]	most effective super-agonist	–	–	–	–	superior lysis	most effective of the candidate super-agonists	killed more CLL cells	killed more autologous cancer cells	induced a greater proportion	presence	superior at priming
NLSALGIFST (listed as Homo sapiens) [wild-type peptide from IMP2 (residues 367-376)]	–	stained	recognised	responded	responses dropped	–	–	–	–	–	–	–

From patent US20220233662A1, “NOVEL PEPTIDE” (University College Cardiff Consultants Ltd., priority 2020, published 2022)
